Results as given in article PMC12680756, “Reflectometric-based sensor arrays for the screening of kinase-inhibitor interactions and kinetic determination” (Analytical and Bioanalytical Chemistry, 2025).

How the values were obtained:
[1] = molecular target: protein mix containing cAMP-dependent protein kinase (PKA) (Bos taurus, UniProt P00517); assay: 1-lambda reflectometry single assays, protein mix flushed over immobilized inhibitor, kinetic evaluation; details: read-out: dissociation rate constant kd
[2] = tested on: PKA in the protein mix; assay: 1-lambda reflectometry inhibitor screening on spotted sensor array, protein mix; format: binding, bovine; details: for order of binding affinity by color change of the spots (naked eye): protein mix 50 µg/mL, image after association, Fig. 5a; for increase of the average relative signal: protein mix, sensograms Fig. 5c, immobilized inhibitor spot
Protocol: (§1) • Manual spotting: the inhibitor dissolved in DMSO (1 mg/mL) was dropped to the measurement region on the transducer by pipetting. The immobilization process was as specified above. • Automatic spotting: the inhibitor dissolved in DMSO (1 mg/mL) was dropped to the measurement region on the transducer via the ceramic pin of the spotter. The droplets were dried under ambient conditions, and the process was repeated twice. After drying the last droplet, the transducer was prepared for measurements or stored at 4°C.
(§2) Screening was performed with 1-lambda reflectometry and transducers on which different inhibitors were spotted in the measurement area. The measurement protocols were the same as for the single assays.
One region per row was set as the reference ROI void of inhibitor.

[3] = molecular target: T1, FAK (Homo sapiens, UniProt Q05397); assay: 1-lambda reflectometry inhibitor screening on spotted sensor array, FAK; format: binding; details: sensograms Fig. 5c; for order regarding the strength of the association: FAK as kinase sample
Protocol: as §1, §2

[4] = molecular target: T1, FAK; assay: Competitive MST assay, labeled STP-FAK complex titrated with another inhibitor; format: binding; details: labeled STP (40 µM) in complex with FAK (40 nM)
Protocol: Microscale thermophoresis was performed with the instrument Monolith NT.115, capillaries and MO.Control Software from Nanotemper Technologies, Munich, Germany. For each experiment, 16 capillaries were filled with a sample solution. […] The fluorescence of a specific area of each capillary was measured prior and during the thermophoresis experiment. For a better comparability, the fluorescence intensity obtained during the measurement was normalized to the fluorescence in each capillary recorded prior to the start of the experiment.

T1 sequence (Q05397 410-689, species assumed): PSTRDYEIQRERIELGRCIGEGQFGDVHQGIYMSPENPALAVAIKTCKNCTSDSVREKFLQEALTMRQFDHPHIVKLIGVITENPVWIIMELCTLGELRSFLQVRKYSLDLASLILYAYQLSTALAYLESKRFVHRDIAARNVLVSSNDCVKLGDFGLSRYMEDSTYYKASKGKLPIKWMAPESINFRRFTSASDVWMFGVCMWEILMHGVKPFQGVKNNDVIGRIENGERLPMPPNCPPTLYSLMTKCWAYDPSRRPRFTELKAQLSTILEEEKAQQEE

koff [1] [s⁻¹]	order of binding affinity by color change of the spots (naked eye) [2]	increase of the relative signal ([3]; FAK, immobilized inhibitor spot) [%]	Structure (SMILES)	order regarding the strength of the association [3]	increase of the average relative signal [2] [%]	shape of dose-response curve in competitive MST [4]
	imatinib > fragment2 > fragment1 > STP	0.13	Cc1ccc(NC(=O)c2ccc(CN3CCN(C)CC3)cc2)cc1Nc1nccc(-c2cccnc2)n1 [imatinib]	STP > imatinib > fasudil > fragment2 > fragment1	0.84	
	imatinib > fragment2 > fragment1 > STP		Nc1ncnc(Nc2ccc(F)cc2)n1 [fragment2]	STP > imatinib > fasudil > fragment2 > fragment1		

The remaining lines, values behind:

Structure (SMILES)	koff [1] [s⁻¹]	order of binding affinity by color change of the spots (naked eye) [2]	increase of the relative signal ([3]; FAK, immobilized inhibitor spot) [%]	order regarding the strength of the association [3]	increase of the average relative signal [2] [%]	shape of dose-response curve in competitive MST [4]
COc1ccc(-c2cc(N)[nH]n2)cc1Cl [fragment1]	0.007	imatinib > fragment2 > fragment1 > STP		STP > imatinib > fasudil > fragment2 > fragment1		
CN[C@@H]1C[C@H]2O[C@@](C)([C@@H]1OC)n1c3ccccc3c3c4c(c5c6ccccc6n2c5c31)C(=O)NC4 [STP, Staurosporine]		imatinib > fragment2 > fragment1 > STP				
O=S(=O)(c1cccc2cnccc12)N1CCCNCC1 [fasudil]		strongest color change		STP > imatinib > fasudil > fragment2 > fragment1	1.7	
Cl.Cn1cc(C2=C(c3c4n(c5ccccc35)CCC(CN)C4)C(=O)NC2=O)c2ccccc21 (centres unmarked) [BisX, Bisindolylmaleimide X]						the slope was inversed compared to the one of the direct assays
